According to patent publication US10961551B2, “Process for producing at least one metabolite of interest by conversion of a pentose in a microorganism” (INSTITUT NATIONAL DE LA RECHERCHE AGRONOMIQUE—INRA, priority 2014, dated 2021):
Like-named read-outs stand apart in the source and are kept apart here.

Tests used:
[1] = target: T1, Fructose-16bP aldolase Aldo-B (aldolase B), H. sapiens, SEQ ID NO:2 (Homo sapiens, UniProt P05062); test: Kinetic parameters of candidate aldolase by coupled NADH consumption assay; assay type: biochemical; settings: Hepes buffer pH 7, NADH consumption at 340 nm
T1 sequence (P05062 1-364): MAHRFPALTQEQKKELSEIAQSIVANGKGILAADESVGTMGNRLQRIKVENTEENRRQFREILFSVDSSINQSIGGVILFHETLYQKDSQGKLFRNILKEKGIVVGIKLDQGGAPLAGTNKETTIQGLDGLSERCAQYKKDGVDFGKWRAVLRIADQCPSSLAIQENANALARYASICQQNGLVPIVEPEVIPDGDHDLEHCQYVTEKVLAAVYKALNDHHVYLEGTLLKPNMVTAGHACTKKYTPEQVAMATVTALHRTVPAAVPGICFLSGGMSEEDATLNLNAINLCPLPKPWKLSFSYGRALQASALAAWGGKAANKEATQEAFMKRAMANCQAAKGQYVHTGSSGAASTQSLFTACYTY
Protocol: (§1) The cloning of the candidate aldolases was done by amplifying aldoB, fbaB and agaY by PCR (using, respectively, the primer pairs P5/P6, P7/P8 and P11/P12 listed in table 3). This amplification was performed from the plasmid peX-A-aldoB carrying aldoB with codon optimization (Eurofins) or from the E. coli genomic DNA for fbaB and agaY, respectively. The fragments were then cloned in pGEM (Invitrogen). […] The ligation product is transformed in the E. coli strain BL21(DE3).

[2] = target: T2, Fructose-16bP aldolase FbaB (fructose-1,6 bisphosphate aldolase B), E. coli, SEQ ID NO:9 (Escherichia coli, UniProt P0A991); test: as above; assay type: biochemical; settings: Hepes buffer pH 7, NADH consumption at 340 nm
T2 sequence (P0A991 1-350): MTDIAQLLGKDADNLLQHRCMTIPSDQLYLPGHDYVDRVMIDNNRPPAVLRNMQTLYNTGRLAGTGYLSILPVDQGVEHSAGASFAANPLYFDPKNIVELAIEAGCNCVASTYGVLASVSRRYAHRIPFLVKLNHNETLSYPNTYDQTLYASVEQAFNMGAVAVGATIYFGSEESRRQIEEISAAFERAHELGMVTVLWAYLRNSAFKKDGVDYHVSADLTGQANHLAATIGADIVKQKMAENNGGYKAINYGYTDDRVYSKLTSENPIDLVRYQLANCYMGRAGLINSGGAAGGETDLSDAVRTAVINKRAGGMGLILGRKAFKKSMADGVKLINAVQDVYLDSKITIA
Protocol: as §1

[3] = target: (L)-rhamnulose kinase RhaB, E. coli, SEQ ID NO:6 (Escherichia coli, UniProt P32171); test: Kinetic parameters of candidate kinase by pyruvate kinase/lactate dehydrogenase coupling reaction; assay type: biochemical; settings: Table 1A; 4 mM ATP, Hepes buffer pH 7, NADH at 340 nm
[4] = target: T3, L-fuculokinase FucK (fuculose kinase), E. coli, SEQ ID NO:5 (Escherichia coli, UniProt P11553); test: as above; assay type: biochemical; settings: Table 1A; 4 mM ATP, Hepes buffer pH 7, NADH at 340 nm
T3 sequence (P11553 1-472): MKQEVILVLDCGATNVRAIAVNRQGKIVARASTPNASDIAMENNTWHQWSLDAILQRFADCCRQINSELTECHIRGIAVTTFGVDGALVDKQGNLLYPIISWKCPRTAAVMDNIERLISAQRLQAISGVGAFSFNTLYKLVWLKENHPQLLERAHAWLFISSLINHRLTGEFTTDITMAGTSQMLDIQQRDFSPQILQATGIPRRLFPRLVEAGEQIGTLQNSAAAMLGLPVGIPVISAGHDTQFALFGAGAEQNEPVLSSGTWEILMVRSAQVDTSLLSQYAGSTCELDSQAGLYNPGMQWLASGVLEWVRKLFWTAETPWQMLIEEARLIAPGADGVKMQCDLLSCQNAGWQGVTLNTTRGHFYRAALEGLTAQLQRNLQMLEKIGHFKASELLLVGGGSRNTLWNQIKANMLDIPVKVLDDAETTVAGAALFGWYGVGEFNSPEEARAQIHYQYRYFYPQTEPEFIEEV

[5] = target: T4, Ketohexokinase Khk-C (ketohexokinase C), H. sapiens, SEQ ID NO:1 (Homo sapiens, UniProt P50053); settings: 4 mM ATP, Hepes buffer pH 7, NADH at 340 nm
T4 sequence (P50053 1-298): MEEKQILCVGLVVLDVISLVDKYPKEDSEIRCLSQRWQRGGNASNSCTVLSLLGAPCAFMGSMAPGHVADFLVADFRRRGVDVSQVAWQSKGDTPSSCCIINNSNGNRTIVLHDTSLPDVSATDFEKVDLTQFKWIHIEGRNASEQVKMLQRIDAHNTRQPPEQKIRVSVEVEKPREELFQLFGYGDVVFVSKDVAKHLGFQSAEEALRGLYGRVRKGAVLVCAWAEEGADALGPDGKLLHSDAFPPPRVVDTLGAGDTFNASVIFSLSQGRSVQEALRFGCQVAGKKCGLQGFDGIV

[6] = Kinase kinetic parameters on (D)-xylulose (pyruvate kinase/lactate dehydrogenase coupling reaction); assay type: biochemical
[7] = Kinase kinetic parameters on (L)-ribulose (pyruvate kinase/lactate dehydrogenase coupling reaction); assay type: biochemical
Description: The same approach was used to characterize these parameters on (L)-ribulose: […]

[8] = Aldolase kinetic parameters on (D)-xylulose-1-phosphate (NADH-coupled assay); assay type: biochemical
[9] = Aldolase kinetic parameters on (L)-ribulose-1-phosphate (NADH-coupled assay); assay type: biochemical
Description: (L)-ribulose-1 kinase: (L)-ribulose+ATP→(L)-ribulose-1P+ADP (L)-ribulose-1P aldolase: (L)-ribulose-1P→DHAP+glycolaldehyde Glycerol-3P dehydrogenase: DHAP+NADH→Glycerol-3P+NAD

[10] = substrate: O=P(O)(O)OC[C@H]1OC(O)(COP(=O)(O)O)[C@@H](O)[C@@H]1O; test: purified protein, by the assay type; settings: other: Hepes buffer pH 7, NADH consumption at 340 nm, 37.0 °C
[11] = substrate: C[C@H](O)[C@@H](O)[C@@H](O)C(=O)CO; test: Kinetic parameters of candidate kinase by pyruvate kinase/lactate dehydrogenase coupling reaction; assay type: biochemical, E. coli; settings: other: Table 1A, 4 mM ATP, Hepes buffer pH 7, NADH at 340 nm, 37.0 °C

Chain of (L)-rhamnulose kinase RhaB, E. coli, SEQ ID NO:6 (P32171 whole entry): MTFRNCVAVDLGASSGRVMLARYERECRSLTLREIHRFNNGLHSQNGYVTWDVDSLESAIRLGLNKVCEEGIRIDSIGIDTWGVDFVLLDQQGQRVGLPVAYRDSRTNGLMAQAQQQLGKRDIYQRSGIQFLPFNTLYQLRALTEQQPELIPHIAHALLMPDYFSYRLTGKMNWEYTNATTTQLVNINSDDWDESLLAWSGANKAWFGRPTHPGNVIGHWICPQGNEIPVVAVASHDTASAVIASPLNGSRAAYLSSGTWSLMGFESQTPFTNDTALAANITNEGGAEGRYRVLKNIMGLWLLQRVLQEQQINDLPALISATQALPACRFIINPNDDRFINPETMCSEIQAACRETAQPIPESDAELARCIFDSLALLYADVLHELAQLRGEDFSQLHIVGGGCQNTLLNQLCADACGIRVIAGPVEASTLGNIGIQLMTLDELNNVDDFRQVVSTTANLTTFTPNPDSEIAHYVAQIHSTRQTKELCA

## O=C(COP(=O)(O)O)[C@@H](O)[C@H](O)CO [(D)-Xylulose-1P, (D)-xylulose-1-phosphate]
[1]
  Vmax: 0.81 ± 0.2 U/mg
[2]
  Vmax: 0.18 ± 0.04 U/mg

## O=C(CO)[C@@H](O)[C@H](O)CO [(D)-xylulose]
[3]
  Km: ns
  Vmax: 18.7 U/mg
[4]
  Km: ns
  Vmax: 0.1 U/mg
[5]; Table 1A
  Km: 600 µM
  Vmax: 3.1 U/mg

## Khk-C: isoform C of ketohexokinase of H. sapiens, encoded by khkC gene SEQ ID NO:1, expressed from pET28a and purified
[6]
  functional on (D)-xylulose: functional
[7]
  functional on (L)-ribulose: functional

## O=C(COP(=O)(O)O)[C@@H](O)[C@@H](O)CO [(L)-Ribulose-1P, (L)-ribulose-1-phosphate]
[1]
  Vmax: 0.00 U/mg
[2]
  Vmax: 0.06 ± 0.01 U/mg

## O=C(CO)[C@@H](O)[C@@H](O)CO [(L)-ribulose]
[5]; Table 1B
  Km: 550 µM
  Vmax: 3.5 U/mg

## OCC1(O)OC[C@@H](O)[C@@H](O)[C@@H]1O (stereo partly drawn) [fructose]
[5]; Table 1A
  Km: 720 µM
  Vmax: 6 U/mg
[5]; Table 1B
  Km: 310 ± 100 µM
  Vmax: 6.59 ± 1.4 U/mg

B1: Fructose-16bP aldolase FbaB (fructose-1,6 bisphosphate aldolase B), E. coli, SEQ ID NO:9 (Escherichia coli K-12) (protein)
chain: T2 sequence (P0A991 1-350)
[8]
  activity on (D)-xylulose-1P: has an activity
[9]
  activity on (L)-ribulose-1P: has an activity
[10]
  Km: 330 ± 70 µM
  Vmax: 0.52 ± 0.1 U/mg

B2: L-fuculokinase FucK (fuculose kinase), E. coli, SEQ ID NO:5 (Escherichia coli K-12) (protein)
chain: T3 sequence (P11553 1-472)
[11]
  Km: 60 µM
  Vmax: 20 U/mg

B3: Fructose-16bP aldolase Aldo-B (aldolase B), H. sapiens, SEQ ID NO:2 (Homo sapiens) (protein)
chain: T1 sequence (P05062 1-364)
[8]
  activity on (D)-xylulose-1P: has an activity
[10]
  Km: 30 ± 10 µM
  Vmax: 0.46 ± 0.05 U/mg
